The values that follow come from US11377423B2, “Inhibitors of histone deacetylase” (The Broad Institute, Inc., priority 2012, dated 2022).

The subject of data set [1] is INS-1E cells. Briefly: Palmitate and/or glucose-induced beta-cell apoptosis, caspase-3/7 activation. It counts as cell-based, rat. Particulars: 0.5 mM palmitate and/or 25 mM glucose, 48 hours. Here is the method: Compounds of the invention were evaluated for their ability to suppress cytokine-induced beta-cell apoptosis and palmitate and/or glucose-induced beta-cell apoptosis by inhibition of HDAC3. Assay protocols were as follows: Cell culture and reagents. […] Recombinant IL-1β, IFN-γ, and TNF-α were purchased from R&D Systems. Palmitate, D-glucose and fatty acids-free low endotoxin BSA were purchased from Sigma. Palmitate was solubilized in 90% ethanol, heated to 60° C. and used 1:100 dilution in media. Caspase-Glo 3/7 was from Promega and 3-(4,5-dimethylthiazol-2-yl)-2,5-diphenyltetrazolium bromide (MTT) was from Calbiochem. Antibodies for HDAC1, HDAC2, HDAC3, pJNK, JNK cleaved caspase-9 and secondary horseradish-peroxidase conjugated goat anti-mouse and anti-rabbit antibodies were from Cell Signaling. Antibody for beta-actin was from Sigma and antibody against CHOP (GADD153) from Abcam. HDAC inhibitors were purchased from Selleck Chemicals or synthesized in-house. Primers were from Integrated DNA Technologies, High Capacity cDNA RT kit and SYBR green master mix were purchased from Applied Biosystems. […] Luminescence was measured after a two-hour incubation using an Envision plate reader (PerkinElmer). […] Apoptosis was measured by caspase-3/7 activation using a commercially available kit. […]

Data set [2] in a line: Brain and plasma concentration in mice. It counts as in vivo. The conditions noted are these: for half-life: mouse, other: injected (site of injection not given). Here is the method: Specifically, mice were injected with a single dose of compound and the concentration of compound was measured in the brain and plasma of mice at 8 time points. The samples were analyzed by LC-MS/MS.

Data set [3] concerns INS-1E cells. Briefly: Insulin assay (glucose-stimulated insulin secretion and insulin content, ELISA). Type of data set: cell-based, rat. Particulars: 10 μM, palmitate and 25 mM glucose, 24 h. Here is the method: INS-1E cells (20,000 cells/well) were seeded in 96-well plates in 100 uL complete medium. After overnight incubation media was removed and cells were exposed to 100 uL medium/well with the indicated concentrations of palmitate, glucose, HDAC inhibitors and/or vehicle. […] Cells were subsequently incubated with KRBH buffer containing 2 mM or 16 mM glucose for 1 hour. Supernatants were collected for measurement of insulin. For measuring insulin content, cells were washed in PBS and lysed using Passive Lysis Buffer. Insulin was measured with a rat insulin ELISA kit (Alpco). Total insulin content was normalized to total protein (Bradford assay). Each condition was assayed in biological duplicates. Specifically, HDAC3 inhibition is shown to preserve the glucose-induced insulin secretory function. […] FIGS. 13A to 13B are a series of bar graphs. […] Glucose-stimulated insulin secretion and total insulin content were assessed by ELISA. Data are presented as fold to CTRL+SEM, n=3-5, ns=not significant, *p<0.05, **p<0.01, ***p<0.001 vs. CTRL, #p<0.05, ##p<0.01, ###p<0.001 vs. respective treatment. ANOVA with Tukey- or Dunnet-corrected test, or Student's t-test (insulin content).

For data set [4], the system named is FGF21. Briefly: FGF21 mRNA expression in HepG2 cells. It counts as cell-based, human. Here is the method:
Compounds of the invention were evaluated for their ability to upregulate FgF21 mRNA expression in HepG2 cells. FgF21 (Fibroblast growth factor 21) is a potent insulin sensitizer and stimulatory signal for fat oxidation. (Li, H. et al. Diabetes, 61, 797, 2012; […]., The American Journal of Clinical Nutrition, 91, […], 2010). The assay protocol was as follows. HepG2 cells were cultured in DMEM and 10% FBS. […] We treated cells with the indicated compounds for two hours, and lysed and extracted mRNA using the Rneasy kit (Qiagen). […] Quantitative PCR was performed using Taqman probes specific for human FGF21 and human actin.

For data set [5], the target named is HDAC9 (Homo sapiens (Human), UniProt Q9UKV0). Briefly: Caliper HDAC enzymatic endpoint assay, HDAC9. Type of data set: biochemical. The conditions noted are these: Table 2C; read-out: HDAC9 IC50 after 0 hr preincubation.
Chain of HDAC9 (Q9UKV0 whole entry): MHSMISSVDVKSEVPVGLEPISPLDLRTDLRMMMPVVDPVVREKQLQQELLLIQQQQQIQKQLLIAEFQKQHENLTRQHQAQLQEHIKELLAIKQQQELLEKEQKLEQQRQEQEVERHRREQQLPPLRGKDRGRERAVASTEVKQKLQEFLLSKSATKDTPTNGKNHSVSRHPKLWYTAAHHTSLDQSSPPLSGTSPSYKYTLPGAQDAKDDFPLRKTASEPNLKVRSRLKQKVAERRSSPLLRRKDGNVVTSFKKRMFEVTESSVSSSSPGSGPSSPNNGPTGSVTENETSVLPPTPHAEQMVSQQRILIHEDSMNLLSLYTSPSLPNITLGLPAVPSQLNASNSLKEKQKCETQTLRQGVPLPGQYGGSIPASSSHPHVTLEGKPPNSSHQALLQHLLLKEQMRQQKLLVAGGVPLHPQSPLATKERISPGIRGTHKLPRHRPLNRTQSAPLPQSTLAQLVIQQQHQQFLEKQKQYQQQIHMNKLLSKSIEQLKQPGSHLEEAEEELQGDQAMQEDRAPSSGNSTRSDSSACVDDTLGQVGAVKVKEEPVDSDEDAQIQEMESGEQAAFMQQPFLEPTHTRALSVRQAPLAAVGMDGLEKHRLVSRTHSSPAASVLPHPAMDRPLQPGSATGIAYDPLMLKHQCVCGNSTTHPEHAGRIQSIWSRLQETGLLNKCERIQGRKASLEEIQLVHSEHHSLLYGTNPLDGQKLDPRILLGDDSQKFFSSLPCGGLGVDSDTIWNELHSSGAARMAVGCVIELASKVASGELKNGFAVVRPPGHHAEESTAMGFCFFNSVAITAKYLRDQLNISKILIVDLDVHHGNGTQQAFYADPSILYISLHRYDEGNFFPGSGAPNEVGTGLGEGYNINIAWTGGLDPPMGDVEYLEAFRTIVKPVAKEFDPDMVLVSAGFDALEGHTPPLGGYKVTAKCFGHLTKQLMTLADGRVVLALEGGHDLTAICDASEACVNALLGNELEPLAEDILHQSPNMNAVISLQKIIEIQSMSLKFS
Procedure: The Caliper HDAC Assay Buffer (acronym HAB, 1 liter) was prepared as follows:
Substrate B was prepared as 2 mM in 100% DMSO. Its final concentration in the assay for HDACs 4, 5, 7, 8, 9 is 2 μM.
LBH was used as quench inhibitor to stop the reaction at the end point.
IC50 values are in micromolar.
The target in data set [6] is HDAC1 (Homo sapiens (Human), UniProt Q13547). Briefly: Kinetics of the inhibition of HDAC1. The conditions noted are these: for T1/2: HDAC1 residence.
Chain of HDAC1 (Q13547 whole entry): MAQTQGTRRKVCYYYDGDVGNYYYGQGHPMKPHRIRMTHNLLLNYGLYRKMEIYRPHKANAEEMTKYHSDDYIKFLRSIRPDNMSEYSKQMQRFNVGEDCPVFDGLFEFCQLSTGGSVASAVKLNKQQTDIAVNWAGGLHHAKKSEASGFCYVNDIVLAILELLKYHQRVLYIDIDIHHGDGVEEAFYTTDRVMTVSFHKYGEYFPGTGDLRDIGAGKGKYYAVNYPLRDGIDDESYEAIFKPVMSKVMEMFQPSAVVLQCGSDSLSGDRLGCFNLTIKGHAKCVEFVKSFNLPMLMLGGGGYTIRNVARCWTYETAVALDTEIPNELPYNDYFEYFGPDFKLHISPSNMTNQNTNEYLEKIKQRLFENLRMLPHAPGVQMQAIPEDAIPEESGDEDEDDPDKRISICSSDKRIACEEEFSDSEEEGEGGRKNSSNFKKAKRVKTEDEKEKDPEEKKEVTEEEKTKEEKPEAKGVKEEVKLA
Procedure: HDAC1 inactivation kinetic constant was determined by curve-fitting of the plot to a first-order rate equation.
The mark [7] stands for this setting: mice, single dose, Repligen 136 30 mg/kg, Compound 1 10 mg/kg.

Each structure is given as a SMILES string. Several values for one entry are separate records, joined by “and”; a condition that tells them apart may be missing. Identical values can stand only once. Like-named read-outs stand apart in the source and are kept apart here.

As to `CC(=O)Nc1ccc(C(=O)Nc2ccc(F)cc2N)cc1` [Compound 1, 4-acetamido-N-(2-amino-4-fluorophenyl)benzamide], in data set [1], the “suppression of palmitate and/or glucose-induced beta-cell apoptosis (caspase activity)” value was “as effective at suppressing palmitate and/or glucose-induced beta-cell apoptosis as CI-994”. For the same molecule, in data set [2] (dose normalized), the “better brain exposure in comparison to Repligen 136 as measured by Cmax” value turned out to be 30 times and the “better brain exposure in comparison to Repligen 136 measured by AUC” value is recorded as 120 times. Also, in data set [2] (setting [7]), the “AUC Brain” value is 12.77 µM·h, the “Cmax Brain” value worked out at 3.80 µM and the “concentration in the brain over time” value is “still present in the brain after 8 hours”. Also, in data set [2] (brain, read-out: T1/2 Brain (converted)), the half-life was 2.06 h. Moreover, in data set [2] (plasma, read-out: T1/2 Plasma (converted)), the half-life is 2.26 h. In addition, the “better plasma exposure as measured by AUC than Repligen 136” value in data set [2] (plasma) came out at 30 times. In data set [3], the glucose-stimulated insulin release entry was “restoring insulin release” and the insulin content result was “restoring insulin content”. Also, the “FGF21 expression (FGF21/actin), dose response” value in data set [4] is given as “dose response increases in FGF21 expression”. Moreover, in data set [4] (20 μM, two hours), the “FGF21 mRNA expression” value is listed as “upregulates FGF21 mRNA expression”. Besides, the IC50 in data set [5] was over 33 µM. In data set [6], this molecule showed a koff of about 0.0045 s⁻¹ and a T1/2 of about 2.5 min. In addition, in data set [6] (HDAC1), the Kon is recorded as ~0.020 min^−1, uM^−1; the off-rate (koff) was about 0.0045 s⁻¹; the “type of binding to HDAC1 (words)” value is “fast off inhibitor”. For the same molecule, the “type of binding to HDAC1 (words)” value in data set [6] (HDAC1, listed as compound 1) is “slow on/fast off rates”. In addition, the T1/2 in data set [6] (listed as compound 1) is on record as 2.5 min. Moreover, the Ki in data set [6] (Ki, HDAC1, inhibition kinetics) was ~14 µM and 14 µM.
